US10457655B2, “Compounds and compositions for inhibition of FASN” (FORMA Therapeutics, Inc., priority 2013, dated 2019)

These compounds were tested against FASN enzyme (Homo sapiens, UniProt P49327) (assay: Enzymatic Assay for FASN Inhibitors). Settings: not given.
Sequence of FASN enzyme (P49327 whole entry): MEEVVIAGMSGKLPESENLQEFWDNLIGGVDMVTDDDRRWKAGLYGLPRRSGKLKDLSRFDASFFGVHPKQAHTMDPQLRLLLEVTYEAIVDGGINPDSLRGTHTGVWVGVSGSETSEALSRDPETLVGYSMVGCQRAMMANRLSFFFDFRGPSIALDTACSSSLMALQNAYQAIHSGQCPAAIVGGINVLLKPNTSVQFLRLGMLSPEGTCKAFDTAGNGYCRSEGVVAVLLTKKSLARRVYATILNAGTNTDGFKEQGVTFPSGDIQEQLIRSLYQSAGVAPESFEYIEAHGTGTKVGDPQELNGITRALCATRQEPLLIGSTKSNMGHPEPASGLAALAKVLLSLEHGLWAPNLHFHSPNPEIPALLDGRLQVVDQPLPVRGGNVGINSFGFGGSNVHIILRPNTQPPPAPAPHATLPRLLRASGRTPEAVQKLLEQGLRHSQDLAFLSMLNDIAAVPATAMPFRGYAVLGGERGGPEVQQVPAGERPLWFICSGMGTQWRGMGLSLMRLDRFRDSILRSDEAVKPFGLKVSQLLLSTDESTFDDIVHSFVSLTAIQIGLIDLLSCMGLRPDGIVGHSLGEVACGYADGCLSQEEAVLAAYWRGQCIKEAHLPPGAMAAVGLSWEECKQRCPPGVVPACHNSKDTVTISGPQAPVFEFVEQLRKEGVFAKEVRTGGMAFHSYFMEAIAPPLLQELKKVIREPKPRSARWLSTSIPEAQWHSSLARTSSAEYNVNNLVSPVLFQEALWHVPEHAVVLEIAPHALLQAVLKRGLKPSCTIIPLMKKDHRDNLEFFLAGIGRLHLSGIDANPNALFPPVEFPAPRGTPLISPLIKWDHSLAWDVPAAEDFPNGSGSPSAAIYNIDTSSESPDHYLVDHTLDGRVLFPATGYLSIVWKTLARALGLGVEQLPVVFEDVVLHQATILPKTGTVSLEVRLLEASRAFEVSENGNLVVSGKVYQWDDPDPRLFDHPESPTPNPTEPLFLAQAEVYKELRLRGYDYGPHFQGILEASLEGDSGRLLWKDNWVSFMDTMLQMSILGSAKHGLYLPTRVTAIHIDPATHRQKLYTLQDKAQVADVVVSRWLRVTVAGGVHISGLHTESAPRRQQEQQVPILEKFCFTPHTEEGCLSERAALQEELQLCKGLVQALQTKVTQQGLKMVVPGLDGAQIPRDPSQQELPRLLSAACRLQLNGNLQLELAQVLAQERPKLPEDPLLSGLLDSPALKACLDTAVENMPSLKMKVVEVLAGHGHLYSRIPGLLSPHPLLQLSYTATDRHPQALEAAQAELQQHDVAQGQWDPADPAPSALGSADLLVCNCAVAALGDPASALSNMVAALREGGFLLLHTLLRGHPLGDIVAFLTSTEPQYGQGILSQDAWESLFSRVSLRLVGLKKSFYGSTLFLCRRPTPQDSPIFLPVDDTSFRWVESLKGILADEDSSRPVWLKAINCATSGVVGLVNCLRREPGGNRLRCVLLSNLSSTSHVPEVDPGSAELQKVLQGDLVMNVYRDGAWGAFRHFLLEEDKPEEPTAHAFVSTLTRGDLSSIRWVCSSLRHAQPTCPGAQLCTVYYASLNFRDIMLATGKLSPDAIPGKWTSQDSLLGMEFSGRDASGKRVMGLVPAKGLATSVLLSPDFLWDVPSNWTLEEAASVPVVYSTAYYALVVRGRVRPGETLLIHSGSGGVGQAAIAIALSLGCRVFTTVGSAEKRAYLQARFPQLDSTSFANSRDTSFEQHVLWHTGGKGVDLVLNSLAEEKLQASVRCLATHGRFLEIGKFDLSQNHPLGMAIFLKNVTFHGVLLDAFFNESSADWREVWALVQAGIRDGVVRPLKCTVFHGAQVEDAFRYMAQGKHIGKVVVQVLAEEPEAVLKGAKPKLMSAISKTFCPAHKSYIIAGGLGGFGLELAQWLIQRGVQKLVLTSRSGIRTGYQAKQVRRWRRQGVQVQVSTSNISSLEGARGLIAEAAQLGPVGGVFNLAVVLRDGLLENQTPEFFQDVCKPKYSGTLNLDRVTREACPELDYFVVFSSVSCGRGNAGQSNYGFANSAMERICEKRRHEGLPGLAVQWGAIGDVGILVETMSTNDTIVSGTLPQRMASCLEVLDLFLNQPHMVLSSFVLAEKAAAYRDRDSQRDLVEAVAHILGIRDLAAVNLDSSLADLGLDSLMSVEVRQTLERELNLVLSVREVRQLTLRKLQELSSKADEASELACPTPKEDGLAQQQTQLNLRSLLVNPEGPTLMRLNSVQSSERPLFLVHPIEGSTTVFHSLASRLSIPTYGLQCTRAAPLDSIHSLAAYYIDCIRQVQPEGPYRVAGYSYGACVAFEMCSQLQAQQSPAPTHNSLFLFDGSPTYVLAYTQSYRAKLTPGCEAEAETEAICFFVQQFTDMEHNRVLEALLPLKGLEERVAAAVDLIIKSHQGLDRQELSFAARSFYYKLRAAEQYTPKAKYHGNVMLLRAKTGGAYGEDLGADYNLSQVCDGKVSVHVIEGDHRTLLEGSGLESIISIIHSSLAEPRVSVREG
Type: biochemical
In short: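 40 nM FASN preincubated with compound 60 min at 25° C in HEPES pH 7.3 buffer with 0.04% Triton X-100. Then 20 μM acetyl-CoA, 60 μM malonyl-CoA and 100 μM NADPH added for 90 min, quenched with CPM thiol probe; fluorescence 360/530 nm, IC50 by four-parameter fit.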
`Cn1ccc2cc(-c3cnc(C(=O)N4CCN(C(=O)C5(O)CC5)CC4)cn3)ccc21` [1-[(4-{[5-(1-methyl-1H-indol-5-yl)pyrazin-2-yl]carbonyl}piperazin-1-yl)carbonyl]cyclopropan-1-ol] showed an IC50 of under 500 nM. With `O=C(c1ccc(-c2cccc(NS(=O)(=O)CC3CCC3)c2)cc1)N1CCN(C(=O)C2(O)CC2)CC1` [1-cyclobutyl-N-(3-{4-[4-(1-hydroxycyclopropanecarbonyl)piperazine-1-carbonyl]phenyl}phenyl)methanesulfonamide] the IC50 was under 500 nM. `O=C(c1ccc(-c2cccc(NS(=O)(=O)CC3CC3)c2)cc1)N1CCN(C(=O)C2(O)CC2)CC1` [1-cyclopropyl-N-(3-{4-[4-(1-hydroxycyclopropanecarbonyl)piperazine-1-carbonyl]phenyl}phenyl)methanesulfonamide] showed an IC50 of under 500 nM. `Cn1cnc2cc(-c3ccc(C(=O)N4CCN(C(=O)C5CCO5)CC4)cc3)ccc21` (stereo not drawn) [1-methyl-5-{4-[4-(oxetane-2-carbonyl)piperazine-1-carbonyl]phenyl}-1H-1,3-benzodiazole] was tested, and the IC50 was under 500 nM. For `Cn1cnc2cc(-c3cc(F)c(C(=O)N4CCN(C(=O)C5(O)CC5)CC4)c(F)c3)ccc21` [1-{4-[2,6-difluoro-4-(1-methyl-1H-1,3-benzodiazol-5-yl)benzoyl]piperazine-1-carbonyl}cyclopropan-1-ol], the IC50 was under 500 nM. Compound `Cn1ncc2ccc(-c3cc(F)c(C(=O)N4CCN(C(=O)C5(O)CC5)CC4)c(F)c3)cc21` [1-{4-[2,6-difluoro-4-(1-methyl-1H-indazol-6-yl)benzoyl]piperazine-1-carbonyl}cyclopropan-1-ol] has an IC50 of under 500 nM. `Cn1cc2ccc(-c3cc(F)c(C(=O)N4CCN(C(=O)C5(N)CC5)CC4)c(F)c3)cc2n1` [1-{4-[2,6-difluoro-4-(2-methyl-2H-indazol-6-yl)benzoyl]piperazine-1-carbonyl}cyclopropan-1-amine] gave an IC50 of under 500 nM. `Cn1cc2ccc(-c3cc(F)c(C(=O)N4CCN(C(=O)C5(O)CC5)CC4)c(F)c3)cc2n1` [1-{4-[2,6-difluoro-4-(2-methyl-2H-indazol-6-yl)benzoyl]piperazine-1-carbonyl}cyclopropan-1-ol] gave an IC50 of under 500 nM. With `Cn1ncc2ccc(-c3ccc(C(=O)N4CCN(C(=O)C5(O)CC5)CC4)c(Cl)c3)cc21` [1-{4-[2-chloro-4-(1-methyl-1H-indazol-6-yl)benzoyl]piperazine-1-carbonyl}cyclopropan-1-ol] the IC50 was under 500 nM. With `Cn1cc2ccc(-c3ccc(C(=O)N4CCN(C(=O)C5(O)CC5)CC4)c(Cl)c3)cc2n1` [1-{4-[2-chloro-4-(2-methyl-2H-indazol-6-yl)benzoyl]piperazine-1-carbonyl}cyclopropan-1-ol] the IC50 was under 500 nM. Work on `O=C(c1ccc(-c2cc(Cl)ccc2F)cc1Cl)N1CCN(C(=O)C2(O)CC2)CC1` [1-{4-[2-chloro-4-(5-chloro-2-fluorophenyl)benzoyl]piperazine-1-carbonyl}cyclopropan-1-ol] yielded an IC50 of under 500 nM. Compound `O=C(c1ccc(-c2nc3ccc(Cl)cc3o2)cc1Cl)N1CCN(C(=O)C2(O)CC2)CC1` [1-{4-[2-chloro-4-(6-chloro-1,3-benzoxazol-2-yl)benzoyl]piperazine-1-carbonyl}cyclopropan-1-ol] has an IC50 of under 500 nM. `Cn1cnc2cc(-c3ccc(C(=O)N4CCN(C(=O)C5(N)CCC5)CC4)c(F)c3)ccc21` [1-{4-[2-fluoro-4-(1-methyl-1H-1,3-benzodiazol-5-yl)benzoyl]piperazine-1-carbonyl}cyclobutan-1-amine] was tested, and the IC50 was under 500 nM. In the case of `Cn1cnc2cc(-c3ccc(C(=O)N4CCN(C(=O)C5(N)CC5)CC4)c(F)c3)ccc21` [1-{4-[2-fluoro-4-(1-methyl-1H-1,3-benzodiazol-5-yl)benzoyl]piperazine-1-carbonyl}cyclopropan-1-amine], the IC50 is reported as under 500 nM. With `Cn1cnc2cc(-c3ccc(C(=O)N4CCN(C(=O)C5(O)CC5)CC4)c(F)c3)ccc21` [1-{4-[2-fluoro-4-(1-methyl-1H-1,3-benzodiazol-5-yl)benzoyl]piperazine-1-carbonyl}cyclopropan-1-ol] the IC50 was under 500 nM. `Cn1ncc2ccc(-c3ccc(C(=O)N4CCN(C(=O)C5(N)CCC5)CC4)c(F)c3)cc21` [1-{4-[2-fluoro-4-(1-methyl-1H-indazol-6-yl)benzoyl]piperazine-1-carbonyl}cyclobutan-1-amine] showed an IC50 of under 500 nM. With `Cn1ncc2ccc(-c3ccc(C(=O)N4CCN(C(=O)C5(N)CC5)CC4)c(F)c3)cc21` [1-{4-[2-fluoro-4-(1-methyl-1H-indazol-6-yl)benzoyl]piperazine-1-carbonyl}cyclopropan-1-amine] the IC50 was under 500 nM. Compound `Cn1ncc2ccc(-c3ccc(C(=O)N4CCN(C(=O)C5(O)CC5)CC4)c(F)c3)cc21` [1-{4-[2-fluoro-4-(1-methyl-1H-indazol-6-yl)benzoyl]piperazine-1-carbonyl}cyclopropan-1-ol] has an IC50 of under 500 nM. With `Cc1cc2ccccc2n1-c1ccc(C(=O)N2CCN(C(=O)C3(N)CC3)CC2)c(F)c1` [1-{4-[2-fluoro-4-(2-methyl-1H-indol-1-yl)benzoyl]piperazine-1-carbonyl}cyclopropan-1-amine] the IC50 was under 500 nM. For `Cc1cc2ccccc2n1-c1ccc(C(=O)N2CCN(C(=O)C3(O)CC3)CC2)c(F)c1` [1-{4-[2-fluoro-4-(2-methyl-1H-indol-1-yl)benzoyl]piperazine-1-carbonyl}cyclopropan-1-ol], the IC50 was under 500 nM. Work on `Cn1cc2ccc(-c3ccc(C(=O)N4CCN(C(=O)C5(N)CCC5)CC4)c(F)c3)cc2n1` [1-{4-[2-fluoro-4-(2-methyl-2H-indazol-6-yl)benzoyl]piperazine-1-carbonyl}cyclobutan-1-amine] yielded an IC50 of under 500 nM. `Cn1cc2ccc(-c3ccc(C(=O)N4CCN(C(=O)C5(N)CC5)CC4)c(F)c3)cc2n1` [1-{4-[2-fluoro-4-(2-methyl-2H-indazol-6-yl)benzoyl]piperazine-1-carbonyl}cyclopropan-1-amine] was tested, and the IC50 was under 500 nM. `Cc1n[nH]c2c(-c3ccc(C(=O)N4CCN(C(=O)C5(N)CC5)CC4)c(F)c3)cccc12` [1-{4-[2-fluoro-4-(3-methyl-1H-indazol-7-yl)benzoyl]piperazine-1-carbonyl}cyclopropan-1-amine] showed an IC50 of under 500 nM. In the case of `Cc1n[nH]c2c(-c3ccc(C(=O)N4CCN(C(=O)C5(O)CC5)CC4)c(F)c3)cccc12` [1-{4-[2-fluoro-4-(3-methyl-1H-indazol-7-yl)benzoyl]piperazine-1-carbonyl}cyclopropan-1-ol], the IC50 is reported as under 500 nM. `O=C(c1ccc(N2CCc3cccnc3C2)cc1F)N1CCN(C(=O)C2(O)CC2)CC1` [1-{4-[2-fluoro-4-(5,6,7,8-tetrahydro-1,7-naphthyridin-7-yl)benzoyl]piperazine-1-carbonyl}cyclopropan-1-ol] showed an IC50 of under 500 nM. For `O=C(c1ccc(-c2nc3ccc(F)cc3o2)cc1F)N1CCN(C(=O)C2(O)CC2)CC1` [1-{4-[2-fluoro-4-(6-fluoro-1,3-benzoxazol-2-yl)benzoyl]piperazine-1-carbonyl}cyclopropan-1-ol], the IC50 was under 500 nM. With `O=C(c1ccc(-c2n[nH]c3c(F)cccc23)cc1F)N1CCN(C(=O)C2(O)CC2)CC1` [1-{4-[2-fluoro-4-(7-fluoro-1H-indazol-3-yl)benzoyl]piperazine-1-carbonyl}cyclopropan-1-ol] the IC50 was under 500 nM.

Same assay, conditions: FASN enzymatic assay; Table 2-2
With `Cc1nc(-c2ccc3c(ccn3C)c2)sc1C(=O)N1CCN(C(=O)C2(O)CC2)CC1` [1-[(4-{[4-methyl-2-(1-methyl-1H-indol-5-yl)-1,3-thiazol-5-yl]carbonyl}piperazin-1-yl)carbonyl]cyclopropan-1-ol] the IC50 was 500 to 5000 nM. `Cc1nc(-c2cnc3ccccc3c2)sc1C(=O)N1CCN(C(=O)C2(O)CC2)CC1` [1-[(4-{[4-methyl-2-(quinolin-3-yl)-1,3-thiazol-5-yl]carbonyl}piperazin-1-yl)carbonyl]cyclopropan-1-ol] gave an IC50 of 500 to 5000 nM. `COc1ccc2cc(-c3ccc(C(=O)N4CCN(C(=O)C5(O)CC5)CC4)nc3)ccc2n1` [1-[(4-{[5-(2-methoxyquinolin-6-yl)pyridin-2-yl]carbonyl}piperazin-1-yl)carbonyl]cyclopropan-1-ol] showed an IC50 of 500 to 5000 nM. `O=C(c1ccc(-c2ccc(Cl)cc2F)cn1)N1CCN(C(=O)C2(O)CC2)CC1` [1-[(4-{[5-(4-chloro-2-fluorophenyl)pyridin-2-yl]carbonyl}piperazin-1-yl)carbonyl]cyclopropan-1-ol] was tested, and the IC50 was 500 to 5000 nM. Compound `O=C(c1ncc(-c2ccc(Cl)cc2F)cn1)N1CCN(C(=O)C2(O)CC2)CC1` [1-[(4-{[5-(4-chloro-2-fluorophenyl)pyrimidin-2-yl]carbonyl}piperazin-1-yl)carbonyl]cyclopropan-1-ol] has an IC50 of 500 to 5000 nM. For `O=C(c1cnc(-c2cnc3ccccc3c2)cn1)N1CCN(C(=O)C2(O)CC2)CC1` [1-[(4-{[5-(quinolin-3-yl)pyrazin-2-yl]carbonyl}piperazin-1-yl)carbonyl]cyclopropan-1-ol], the IC50 was 500 to 5000 nM. Compound `O=C(c1cnc(-c2ccc3ncccc3c2)cn1)N1CCN(C(=O)C2(O)CC2)CC1` [1-[(4-{[5-(quinolin-6-yl)pyrazin-2-yl]carbonyl}piperazin-1-yl)carbonyl]cyclopropan-1-ol] has an IC50 of 500 to 5000 nM. With `O=C(c1ncc(-c2ccc3ncccc3c2)cn1)N1CCN(C(=O)C2(O)CC2)CC1` [1-[(4-{[5-(quinolin-6-yl)pyrimidin-2-yl]carbonyl}piperazin-1-yl)carbonyl]cyclopropan-1-ol] the IC50 was 500 to 5000 nM. Compound `COc1ccc2cc(-c3ccc(C(=O)N4CCN(C(=O)C5(O)CC5)CC4)cn3)ccc2n1` [1-[(4-{[6-(2-methoxyquinolin-6-yl)pyridin-3-yl]carbonyl}piperazin-1-yl)carbonyl]cyclopropan-1-ol] has an IC50 of 500 to 5000 nM. For `O=C(c1ccc(-c2ccc3ncccc3c2)nc1)N1CCN(C(=O)C2(O)CC2)CC1` [1-[(4-{[6-(quinolin-6-yl)pyridin-3-yl]carbonyl}piperazin-1-yl)carbonyl]cyclopropan-1-ol], the IC50 was 500 to 5000 nM.

Same assay, conditions: FASN enzymatic assay; Table 2-3
For `O=C(c1ccc(-c2ccc(Cl)cc2F)nc1)N1CCN(C(=O)C2(O)CC2)CC1` [1-[(4-{[6-(4-chloro-2-fluorophenyl)pyridin-3-yl]carbonyl}piperazin-1-yl)carbonyl]cyclopropan-1-ol], the IC50 was at least 5000 nM. `O=C(c1cn2cc(-c3ccc(F)cc3)ccc2n1)N1CCN(C(=O)C2(O)CC2)CC1` [1-[(4-{[6-(4-fluorophenyl)imidazo[1,2-a]pyridin-2-yl]carbonyl}piperazin-1-yl)carbonyl]cyclopropan-1-ol] showed an IC50 of at least 5000 nM.
